Results published in US8227434B1, “Materials and methods for treating oncological disorders” (H. Lee Moffitt Cancer Center & Research Institute, Inc., priority 2003, dated 2012).

Experiments:
8226/LR5 cell line = assay: Alkaline comet assay of melphalan induced DNA crosslinks; assay type: cell-based, human; conditions: 2 h, FIG. 3A
Procedure: (§1) The alkaline comet assay was used to detect melphalan induced DNA crosslinks in 8226 myeloma cells. Cells cultured in suspension or adhered to FN were treated with varying doses of melphalan or vehicle control for two hours. Following drug treatment, single strand breaks were induced, by irradiating appropriate samples at 900 rads (MARK I model 68A irradiator). After drug treatment and irradiation, 5,000 cells were placed in a microcentrifuge tube containing 1 ml cold PBS, and the alkaline comet assay was performed as described by Kent et al. (1995). Fifty images were randomly captured per slide, and images by fluorescence microscopy were quantified using Optimus^R software as previously described (Hazlehurst et al., 2001; Kent et al., 1995).
(§2) The percent crosslinking was calculated as follows:
(§3) The data shown are the means of three independent experiments (n=50 images for each dose of each independent experiment). An analysis of variance (ANOVA) model was used to quantify the relationship between the response variable and the two independent variables.

[1] = tested on: 8226 cells adhered to FN (8226/FN); assay: as above; assay type: cell-based, human; conditions: 2 h, FIG. 3B
Procedure: as §1, §2, §3

[2] = tested on: 8226 cells in suspension (8226/SUS); assay: as above; assay type: cell-based, human; conditions: 2 h
Procedure: as §1, §2, §3

LR5 cells = assay: Cell-cycle analysis (BrDU/PI flow cytometry); assay type: cell-based, human; conditions: 48 h post 10 μM melphalan, 2 hour treatment
Procedure: (§4) To check the melphalan effect on cell cycle progressing, 8226 and LR5 were treated with 10 μM, 25 μM and 50 μM of melphalan and collected at 24 h and 48 h. Cells were then fixed with 70% EtOH at 4° C. overnight; and resuspended with 500 μl of PBS containing 25 μg/ml propidium Iodide (PI) (Sigma, St. Louis, Mo.) and 1.25 mg/ml Rnase A (Invetrogen) and incubated at 37° C. for 30 minutes in the dark. BrDU/PI staining was done as described (Hazlehurst et al., 2000). Briefly, within various of time post-drug treatment, cells were treated with 10 μM Bromodeoxyuridine (BrDU) at 37° C. for 30 mins, fixed in 70% ethanol., denatured (2MHCl) and neutralized (0.1M sodium borate). Cell were stained with anti-BrDU FITC antibody (BD, Phamingen), then resuspended with 500 μl of PBS containing 25 μg/ml propidium Iodide (PI) (Sigma, St. Louis, Mo.) and 1.25 mg/ml Rnase A (Invetrogen) and incubated at 37° C. for 30 mins in the dark. Nuclear staining was analyzed on a FACScan flow cytometer (Becton Dickinson, San Jose, Calif.). Watson (Pragmatic) from FlowJo 4.4.4 was used for DNA content analysis.

8226 cells [3] = assay: Cell-cycle analysis (BrDU/PI flow cytometry); assay type: cell-based, human; conditions: 48 h post 10 μM melphalan, 2 hour treatment
Procedure: as §4

8226/LR5 cells = assay: Alkaline comet assay, ICL formation and removal; assay type: cell-based, human; conditions: within 17 hours after maximum ICL formation; 2 h exposure to 50 μM melphalan
Procedure: (§5) The alkaline comet assay was used to detect melphalan induced DNA crosslinks in 8226 and 8226/LR5 myeloma cells (Hazlehurst et al., 2003). To examine the dose response, 2×10^5 cells were treated with 25 μM. 50 μM and 100 μM melphalan or vehicle control for two hours, washed in PBS and cultured in drug-free medium for another three hours culture. After drug treatment, samples were irradiated at 900 rads (MARK I model 68A irradiator). The alkaline comet assay was performed according to the manufacturer's instructions (Travegene). Fifty images per slide were randomly captured by fluorescence microscopy and images were quantified using LAI comet analysis software (Loats Associates, Inc. Westminster, Md.). The percent crosslinking was calculated as follows: Relative crosslinking=(1-(Comet moment drug treated-comet moment control/comet moment 900 rads-comet moment control))×100. To examine the ICL formation and removal, 8226 and LR5 were incubated in 25 μM or 50 μM melphalan and vehicle control, respectively for 2 hours after which they were cultured in drug free medium for various times. Cells were collected at 0 h, 3 h, 8 h and 23 h after 2 h drug treatment to perform the comet assay. […] An analysis of variance (ANOVA) model was used to quantify the relationship between the response variable and the two independent variables.

8226 cells [4] = assay: Alkaline comet assay, ICL formation and removal; assay type: cell-based, human; conditions: within 17 hours after maximum ICL formation; 2 h exposure to 25 μM melphalan
Procedure: as §5

[5] = tested on: plasma cells from bone marrow aspirates of myeloma patients; assay: Melphalan-induced apoptosis of patient specimens (TUNEL, kappa/lambda staining); assay type: cell-based, human; conditions: 10 patient specimens
Source text: To determine if CAM-DR occurred in patient specimens as well as myeloma cell lines, a double immunofluorescent assay was developed to simultaneously detect apoptotic plasma cells. After obtaining IRB approved consent, mononuclear cells from bone marrow aspirates obtained from patients with stage II and III myeloma were isolated by ficol-hypaque centrifugation and placed in αMEM media. One million cells/ml were adhered to FN or placed in suspension (0.1% poly-hema coated wells) for 2 hrs in serum free αMEM media. Following two hours of adhesion, fresh media with 15% FBS was added and cells were incubated for an additional 12-16 hrs. Following adhesion overnight, cells were treated with 200 uM melphalan for two hours and extracellular drug was removed and maintained in drug free media for an additional 24 hrs prior to fixation. Plasma cells were identified by either positive kappa or lambda staining (Vector laboratories, Burlingame, Calif.) and apoptotic plasma cells were identified by TUNEL analysis labeling using a commercially available kit (Intergen company, Purchase, N.Y., Cat. S7110). Fluorescence microscopy (Vysis, Downers Grove, Ill.) was used to count 500 total plasma cells per slide. Results following cell adhesion were compared to mononuclear cells exposed to melphalan in suspension culture.

LR5 cell line = LR5 cell line (Bellamy et al., 1991); cited from earlier work

Row | SMILES | percent crosslinking, 8226/LR5 Mean (SE) (8226/LR5 cell line; 25 uM melphalan) | percent crosslinking, 8226/LR5 Mean (SE) (8226/LR5 cell line; 50 uM melphalan) | percent crosslinking, 8226/LR5 Mean (SE) (8226/LR5 cell line; 100 uM melphalan) | percent crosslinking, 8226/FN Mean (SE) ([1]; 25 uM melphalan) | percent crosslinking, 8226/FN Mean (SE) ([1]; 50 uM melphalan) | percent crosslinking, 8226/FN Mean (SE) ([1]; 100 uM melphalan) | percent crosslinking, 8226/SUS Mean (SE) ([2]; 25 uM melphalan, FIG. 3A) | percent crosslinking, 8226/SUS Mean (SE) ([2]; 25 uM melphalan, FIG. 3B) | percent crosslinking, 8226/SUS Mean (SE) ([2]; 50 uM melphalan, FIG. 3B) | percent crosslinking, 8226/SUS Mean (SE) ([2]; 100 uM melphalan, FIG. 3A) | percent crosslinking, 8226/SUS Mean (SE) ([2]; 100 uM melphalan, FIG. 3B) | cell cycle effect (LR5 cells) | cell cycle effect (8226 cells [3]) | ICL removed (8226/LR5 cells) | removal of ICL (8226 cells [4]) | mean percent apoptosis of plasma cells ([5]; adhered to FN prior to treatment with 200 uM melphalan) | mean percent apoptosis of plasma cells ([5]; maintained in cell suspension, 200 uM melphalan) | effect on resistance to melphalan (LR5 cell line)
1 | N[C@@H](Cc1ccc(N(CCCl)CCCl)cc1)C(=O)O [melphalan, Melphalan] | −4.49 (16.687) % | 14.02 (8.648) % | 47.32 (9.121) % | 29.11 (0.888) % | 47.73 (2.141) % | 72.03 (2.09) % | 20.31 (9.579) % | 22.40 (9.458) % | 46.27 (5.850) % | 67.31 (4.110) % | 70.67 (6.175) % | continue cell cycle progression | arrested in G2/M phase | 40% | no significant removal of ICL | 27.7% | 55.6% | –
2 | CCCCS(=N)(=O)CCC(N)C(=O)O (stereo not drawn) [buthionine sulfoximine] | – | – | – | – | – | – | – | – | – | – | – | – | – | – | – | – | – | partially reversed resistance to melphalan
